Measurements: patent publication US20200002323A1, “COMPOUNDS” (GLAXOSMITHKLINE INTELLECTUAL PROPERTY DEVELOPMENT LIMITED, priority 2017, published 2020)

Target: T1, recombinant full length LRRK2 protein over-expressed in SH-SY5Y cells (Homo sapiens, UniProt Q5S007)
T1 construct: engineered to over-express recombinant full length LRRK2 protein; host or cells: SH-SY5Y human neuroblastoma cells transduced with BacMam LRRK2 virus
Test: Recombinant cellular LRRK2 AlphaScreen assay (LRRK2 Ser935 phosphorylation)
Assay type: cell-based
Settings: human neuroblastoma SH-SY5Y cells over-expressing recombinant full length LRRK2, 60 minutes compound incubation, read-out: pIC50 in the recombinant cellular LRRK2 AlphaScreen assay (converted)
Text: b. Recombinant Cellular LRRK2 AlphaScreen Assay
To determine the activity of compounds against LRRK2 kinase activity in cells, the observed LRRK2 kinase-dependent modulation of LRRK2 Ser 935 phosphorylation (Dzamko et al., 2010, Biochem. J. 430: 405-413) was utilized to develop a quantitative 384 well plate-based immunoassay of LRRK2 Ser935 phosphorylation in the human neuroblastoma cell line SH-SY5Y, engineered to over-express recombinant full length LRRK2 protein.
A BacMam virus expressing full length recombinant LRRK2 was purchased from Invitrogen and amplified by inoculation of SF-9 cells at MOI 0.3 for 4-5 days in Sf-900 III SFM medium supplemented with 3% fetal bovine serum. Infected cell cultures were then centrifuged at 2000 g for 20 minutes, viral supernatant titer determined by anti-gp64 plaque assay and stored at 4° C.
Affinity-purified anti-phospho LRRK2 Ser935 sheep polyclonal antibody (Dzamko et al., 2010, Biochem. J. 430: 405-413) was biotinylated by standard methods (PerkinElmer). Anti-LRRK2 rabbit polyclonal antibody was purchased from Novus Biologicals. AlphaScreen Protein A IgG Kit (including acceptor and donor beads) was purchased from Perkin Elmer. […]
Serial dilutions of test compounds were prepared in Opti-MEM reduced serum media (Invitrogen) and 5.6 ul transferred from compound plate to cell assay plate to achieve a top final assay concentration of 10 uM. […] 10 ul of antibody/acceptor bead mix [(1/1000 biotinylated-pS935 LRRK2 antibody, 1/1000 total-LRRK2 antibody, 1/100 Acceptor beads in AlphaScreen detection buffer (25 mM Hepes (pH 7.4), 0.5% Triton X-100, 1 mg/ml Dextran 500 and 0.1% BSA)] was then added to each well and plates incubated for 2 hours at ambient temperature in the dark. 10 μl of donor beads solution (1/33.3 donor beads in AlphaScreen detection buffer) was then added to each well. Following incubation for a further 2 hours at ambient temperature in the dark, plates were read on an EnVision™ plate reader at emission 520-620 nm with excitation 680 nm. […]

T1 sequence (Q5S007 whole entry): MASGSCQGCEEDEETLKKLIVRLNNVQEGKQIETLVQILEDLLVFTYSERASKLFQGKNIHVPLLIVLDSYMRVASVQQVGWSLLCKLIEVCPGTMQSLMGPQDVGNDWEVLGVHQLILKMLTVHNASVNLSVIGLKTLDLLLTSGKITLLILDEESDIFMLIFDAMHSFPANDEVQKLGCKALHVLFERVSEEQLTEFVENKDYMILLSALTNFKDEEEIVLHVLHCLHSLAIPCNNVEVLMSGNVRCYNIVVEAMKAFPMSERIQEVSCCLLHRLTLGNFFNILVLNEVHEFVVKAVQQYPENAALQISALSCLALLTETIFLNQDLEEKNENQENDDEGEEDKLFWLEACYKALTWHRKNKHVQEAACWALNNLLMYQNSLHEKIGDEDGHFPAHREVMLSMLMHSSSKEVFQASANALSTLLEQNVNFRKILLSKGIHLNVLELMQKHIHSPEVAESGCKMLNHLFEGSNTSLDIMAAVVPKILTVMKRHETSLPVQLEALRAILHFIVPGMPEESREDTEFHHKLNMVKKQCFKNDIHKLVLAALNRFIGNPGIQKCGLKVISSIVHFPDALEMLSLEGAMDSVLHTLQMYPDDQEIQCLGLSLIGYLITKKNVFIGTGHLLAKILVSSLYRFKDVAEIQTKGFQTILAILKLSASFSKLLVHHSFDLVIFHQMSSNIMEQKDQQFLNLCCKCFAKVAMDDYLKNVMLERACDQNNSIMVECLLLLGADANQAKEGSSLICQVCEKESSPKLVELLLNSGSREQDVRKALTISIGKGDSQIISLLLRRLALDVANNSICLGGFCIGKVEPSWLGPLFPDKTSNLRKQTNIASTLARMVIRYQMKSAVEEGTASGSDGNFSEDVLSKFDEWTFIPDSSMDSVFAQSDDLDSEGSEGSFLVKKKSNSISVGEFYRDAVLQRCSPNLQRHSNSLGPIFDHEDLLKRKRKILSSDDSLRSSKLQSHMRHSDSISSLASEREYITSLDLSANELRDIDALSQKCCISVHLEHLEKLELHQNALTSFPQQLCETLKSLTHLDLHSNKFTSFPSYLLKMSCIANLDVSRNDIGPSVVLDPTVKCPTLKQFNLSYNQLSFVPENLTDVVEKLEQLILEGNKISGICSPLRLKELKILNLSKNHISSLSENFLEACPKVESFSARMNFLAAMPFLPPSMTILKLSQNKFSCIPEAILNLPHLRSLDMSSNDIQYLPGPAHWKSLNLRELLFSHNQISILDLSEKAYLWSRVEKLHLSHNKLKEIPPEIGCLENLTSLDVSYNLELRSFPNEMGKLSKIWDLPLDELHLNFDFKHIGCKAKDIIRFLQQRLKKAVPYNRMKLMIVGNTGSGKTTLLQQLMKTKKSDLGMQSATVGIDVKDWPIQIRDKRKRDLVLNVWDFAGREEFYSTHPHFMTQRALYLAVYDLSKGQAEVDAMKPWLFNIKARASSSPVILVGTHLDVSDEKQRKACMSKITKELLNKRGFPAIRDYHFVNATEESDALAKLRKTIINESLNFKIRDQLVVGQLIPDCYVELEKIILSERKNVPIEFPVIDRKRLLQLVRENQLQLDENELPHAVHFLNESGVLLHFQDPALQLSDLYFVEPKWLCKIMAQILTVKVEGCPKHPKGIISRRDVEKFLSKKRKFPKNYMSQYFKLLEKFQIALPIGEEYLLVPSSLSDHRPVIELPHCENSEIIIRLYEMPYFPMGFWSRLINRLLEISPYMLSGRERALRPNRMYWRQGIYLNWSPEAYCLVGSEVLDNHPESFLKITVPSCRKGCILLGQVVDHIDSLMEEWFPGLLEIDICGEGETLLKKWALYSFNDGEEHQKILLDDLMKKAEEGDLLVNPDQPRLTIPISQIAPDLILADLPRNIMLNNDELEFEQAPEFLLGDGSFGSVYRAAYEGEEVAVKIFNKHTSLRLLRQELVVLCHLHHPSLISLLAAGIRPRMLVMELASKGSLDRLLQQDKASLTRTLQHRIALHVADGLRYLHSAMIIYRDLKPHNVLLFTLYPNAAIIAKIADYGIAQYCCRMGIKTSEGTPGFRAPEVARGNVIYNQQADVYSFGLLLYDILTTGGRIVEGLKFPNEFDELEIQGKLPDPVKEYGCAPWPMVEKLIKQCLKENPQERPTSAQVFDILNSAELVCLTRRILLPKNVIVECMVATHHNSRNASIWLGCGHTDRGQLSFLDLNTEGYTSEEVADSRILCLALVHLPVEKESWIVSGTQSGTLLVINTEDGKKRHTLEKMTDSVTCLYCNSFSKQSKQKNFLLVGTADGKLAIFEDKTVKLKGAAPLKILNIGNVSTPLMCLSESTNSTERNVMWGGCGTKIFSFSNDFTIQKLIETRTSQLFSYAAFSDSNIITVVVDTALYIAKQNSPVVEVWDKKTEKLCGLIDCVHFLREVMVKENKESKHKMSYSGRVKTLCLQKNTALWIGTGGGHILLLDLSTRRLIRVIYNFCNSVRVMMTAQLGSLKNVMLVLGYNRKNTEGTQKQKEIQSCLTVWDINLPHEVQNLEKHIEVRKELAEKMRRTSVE

IC50 [nM] | SMILES
5.01 | COc1nc(N2CCOCC2)cc(-n2ncc3cc(C)c(C4CCN(CCO)CC4F)cc32)n1 (single isomer, unassigned) [Example E1, 2-(3-fluoro-4-(1-(2-methoxy-6-morpholinopyrimidin-4-yl)-5-methyl-1H-indazol-6-yl)piperidin-1-yl)ethanol]
6.31 | Cc1nc(N2CCO[C@@H](CO)C2)cc(-n2ncc3cc(C)c(C4CCN(CC(C)O)CC4F)cc32)n1 (single isomer, unassigned) [Example E29]
2 | COc1nc(N2CC(O)C2)cc(-n2ncc3cc(C)c(C4CCN(CCS(C)(=O)=O)CC4)cc32)n1 [Example E42, 1-(2-methoxy-6-(5-methyl-6-(1-(2-(methylsulfonyl)ethyl)piperidin-4-yl)-1H-indazol-1-yl)pyrimidin-4-yl)azetidin-3-ol]
